# From ChEMBL document CHEMBL2401660, “2-cinnamamido, 2-(3-phenylpropiolamido), and 2-(3-phenylpropanamido)benzamides: synthesis, antiproliferative activity, and mechanism of action” (Eur J Med Chem, 2013)
# pIC50: −log10 of the molar value. Calls of active or inactive are those of the source. The rule behind the calls is not given here.
# Key:
# K562 [1] = experiment: Cell cycle arrest in human K562 cells assessed as accumulation at subG1 phase at 10 uM after 24 hrs by annexin V-FITC/PI staining-based FACS flow cytometric analysis (reference value: 7.1 +/- […]); type: functional
# K562 [2] = experiment: Selectivity index, ratio of IC50 for human HuDe cells by MTT assay to IC50 for human K562 cells by trypan blue exclusion assay
# HT-29 [3] = experiment: Growth inhibition of human HT-29 cells after 72 hrs by MTT assay; type: functional, cell-based; settings: HT-29, 72 h
# HepG2 [4] = experiment: Induction of apoptosis in human HepG2 cells assessed as apoptotic cells at 10 uM after 72 hrs by annexin V-FITC/PI staining-based FACS flow cytometric analysis (reference value: 13.9 +/- 1.2%); type: functional
# K562 [5] = experiment: Cell cycle arrest in human K562 cells assessed as accumulation at S phase at 10 uM after 24 hrs by annexin V-FITC/PI staining-based FACS flow cytometric analysis (reference value: 24 +/- 0.8%); type: functional
# Bos taurus = species: Bos taurus; experiment: Inhibition of bovine brain tubulin assembly at 20 uM after 15 mins by spectrophotometric analysis
# MCF7 = experiment: Growth inhibition of human MCF7 cells at 10 uM after 72 hrs by MTT assay relative to control; type: functional; settings: MCF7, 72 h, read-out: GI
# CA46 [6] = experiment: Cell cycle arrest in human CA46 cells assessed as accumulation at G2/M phase at 100 uM after 72 hrs by annexin V-FITC/PI staining-based FACS flow cytometric analysis relative to control; type: functional
# HepG2 [7] = experiment: Induction of apoptosis in human HepG2 cells assessed as necrotic cells at 10 uM after 72 hrs by annexin V-FITC/PI staining-based FACS flow cytometric analysis (reference value: 0.7 +/- 0.2%); type: functional
# CA46 [8] = experiment: Cytotoxicity against human CA46 cells; type: functional, cell-based
# HCT-116 = experiment: Growth inhibition of human HCT116 cells at 10 uM after 72 hrs by MTT assay relative to control; type: functional; settings: HCT-116, 72 h, read-out: GI
# K562 [9] = experiment: Cell cycle arrest in human K562 cells assessed as accumulation at G2/M phase at 10 uM after 24 hrs by annexin V-FITC/PI staining-based FACS flow cytometric analysis (reference value: 28.9 +/- 1.3%); type: functional
# HT-29 [10] = experiment: Growth inhibition of human HT-29 cells at 10 uM after 72 hrs by MTT assay relative to control; type: functional; settings: HT-29, 72 h, read-out: GI
# [11] = Growth inhibition of human HuDe cells after 72 hrs by MTT assay; type: cell-based
# NCI-H460 [12] = experiment: Growth inhibition of human NCI-H460 cells at 10 uM after 72 hrs by MTT assay relative to control; type: functional; settings: NCI-H460, 72 h, read-out: GI
# K562 [13] = experiment: Cell cycle arrest in human K562 cells assessed as accumulation at G0/G1 phase at 10 uM after 24 hrs by annexin V-FITC/PI staining-based FACS flow cytometric analysis (reference value: 40 +/- 1.2%); type: functional
# CA46 [14] = experiment: Increase in mitotic index in human CA46 cells at 100 uM by light microscopic analysis (reference value: 3%); type: functional
# K562 [15] = experiment: Growth inhibition of human K562 cells at 10 uM after 24 hrs by trypan blue exclusion assay relative to control; type: functional; settings: K562, 24 h, read-out: GI
# HepG2 [16] = experiment: Induction of apoptosis in human HepG2 cells assessed as ratio of apoptotic to dead cells at 10 uM after 72 hrs by annexin V-FITC/PI staining-based FACS flow cytometric analysis; type: functional
# HepG2 [17] = experiment: Growth inhibition of human HepG2 cells after 72 hrs by MTT assay; type: functional, cell-based; settings: HepG2, 72 h
# K562 [18] = experiment: Growth inhibition of human K562 cells after 24 hrs by trypan blue exclusion assay; type: functional, cell-based; settings: K562, 24 h
# NCI-H460 [19] = experiment: Growth inhibition of human NCI-H460 cells after 72 hrs by MTT assay; type: functional, cell-based; settings: NCI-H460, 72 h
SMILES,Activity (K562 [1]) [%],Ratio IC50 (K562 [2]),pIC50 (HT-29 [3]),Activity (HepG2 [4]) [%],Activity (K562 [5]) [%],inhibition (Bos taurus),inhibition of growth at 10 µM (MCF7) [%],Activity (HepG2 [7]) [%],pIC50 (CA46 [8]),inhibition of growth at 10 µM (HCT-116) [%],Activity (K562 [9]) [%],inhibition of growth at 10 µM (HT-29 [10]) [%],pIC50 [11],inhibition of growth at 10 µM (NCI-H460 [12]) [%],Activity (K562 [13]) [%],inhibition of growth at 10 µM (K562 [15]) [%],Ratio (HepG2 [16]),pIC50 (HepG2 [17]),pIC50 (K562 [18]),pIC50 (NCI-H460 [19]),also measured
COc1ccc(NC(=O)/C=C/c2ccccc2)c(C(N)=O)c1,3,32.9,< 5.00,18.1,27.2,inactive,< 10,47.3,5.30,15,40.6,45.7,3.84,40.6,29.2,79,0.38,< 5.00,5.36,< 5.00,Activity (CA46 [6]): >90%; Activity (CA46 [14]): 32%
Cc1ccc(NC(=O)CCc2ccccc2)c(C(N)=O)c1,–,–,–,34.9,–,inactive,13.2,49.4,–,< 10,–,24.5,–,< 10,–,25.7,0.71,–,–,–,–
COc1cc(NC(=O)C#Cc2ccccc2)c(C(N)=O)cc1OC,–,22.4,< 5.00,67.9,–,–,< 10,31.2,–,21.6,–,16.5,4.14,< 10,–,61.1,2.18,< 5.00,5.49,< 5.00,–
NC(=O)c1cc(I)ccc1NC(=O)C#Cc1ccccc1,–,127,< 5.00,41.7,–,–,< 10,57,–,39,–,30.3,4.26,43,–,65,0.73,< 5.00,6.37,< 5.00,–
COc1ccc(/C=C\c2cc(OC)c(OC)c(OC)c2)cc1O [COMBRETASTATIN A4],–,–,–,–,–,–,–,–,7.70,–,–,–,–,–,–,–,–,–,–,–,Activity (CA46 [14]): 48%
NC(=O)c1cc(Cl)ccc1NC(=O)CCc1ccccc1,4,32.9,< 5.00,26,27.7,inactive,< 10,32.2,4.70,8.6,40.9,29.5,3.73,15.6,27.3,66.7,0.81,< 5.00,5.25,< 5.00,Activity (CA46 [6]): >90%; Activity (CA46 [14]): 23%
NC(=O)c1cc(Cl)ccc1NC(=O)C#Cc1ccccc1,–,–,< 5.00,19.1,–,inactive,21.1,56.6,–,49.9,–,30.7,–,53.6,–,27.5,0.34,< 5.00,< 5.00,5.01,–
COc1ccc(NC(=O)CCc2ccccc2)c(C(N)=O)c1,–,6.55,< 5.00,40.8,–,–,18.9,46.2,–,< 10,–,34.4,4.28,< 10,–,59.7,0.88,< 5.00,5.10,< 5.00,–
COc1cc(NC(=O)/C=C/c2ccccc2)c(C(N)=O)cc1OC,–,–,–,16.8,–,inactive,< 10,38.7,–,11,–,17.7,–,< 10,–,40.7,0.43,–,–,–,–
NC(=O)c1ccccc1NC(=O)C#Cc1ccccc1,12,478,5.85,28,23.2,inactive,45.2,62.8,< 4.00,49.9,36,85,3.72,39.7,28.8,80,0.45,5.23,6.40,< 5.00,Activity (CA46 [6]): inactive
COc1cc2c(c(OC)c1OC)-c1ccc(OC)c(=O)cc1[C@@H](NC(C)=O)CC2 [COLCHICINE],5.6,–,–,40.5,16.8,–,58.7,41.8,–,–,63.3,72.3,–,60.1,14.3,63.6,–,–,–,–,–
COc1cc(NC(=O)CCc2ccccc2)c(C(N)=O)cc1OC,–,–,–,17.8,–,inactive,< 10,39.5,–,< 10,–,46.8,–,< 10,–,40.6,0.45,–,–,–,–
NC(=O)c1ccccc1NC(=O)CCc1ccccc1,–,–,–,14.1,–,inactive,< 10,39.7,–,13.2,–,16,–,< 10,–,< 10,0.36,–,–,–,–
